“And” between values parts separate entries of the source, which are not always exact repeats. Identical values can stand only once. Inconclusive results and toxic doses are left out. Cut-off read from the data, not from the text of the source: active = T/C of 150% or more; inactive = T/C below 125%.
Tested on: L1210 leukemia ip in BDF1 mice, survival T/C
Experiment: NCI In Vivo Anticancer Drug Screen. Data for tumor model L1210 Leukemia (intraperitoneal) in B6D2F1 (BDF1) mice
Conditions: endpoint: mean survival time, higher = longer survival
How it was run: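 Survival endpoint. Drug-treated group vs vehicle group, expressed as T divided by C. Tumor passaged by transplantation.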

[1] = dose: 20.0 mg/kg/injection, schedule: Q01DX001 (ip), vehicle: saline
[2] = dose: 100.0 mg/kg/injection, schedule: Q01DX009 (ip), vehicle: saline
[3] = dose: 100.0 mg/kg/injection, schedule: Q04DX003 (ip), vehicle: saline
[4] = dose: 200.0 mg/kg/injection, schedule: Q04DX003 (ip), vehicle: saline
[5] = dose: 400.0 mg/kg/injection, schedule: Q04DX003 (ip), vehicle: saline
[6] = dose: 100.0 mg/kg/injection, schedule: Q04DX003 (ip), vehicle: Klucel (hydroxypropylcellulose) (HPC)
[7] = dose: 200.0 mg/kg/injection, schedule: Q04DX003 (ip), vehicle: Klucel (hydroxypropylcellulose) (HPC)
[8] = dose: 400.0 mg/kg/injection, schedule: Q04DX003 (ip), vehicle: Klucel (hydroxypropylcellulose) (HPC)
[9] = dose: 100.0 mg/kg/injection, schedule: Q01DX001 (ip), vehicle: saline
[10] = dose: 100.0 mg/kg/injection, schedule: Q01DX009 (ip), vehicle: Klucel (hydroxypropylcellulose) (HPC)
[11] = dose: 200.0 mg/kg/injection, schedule: Q01DX001 (ip), vehicle: saline

Measured: T/C

Cc1ccnc(NS(=O)(=O)c2ccc(N=[N+]=[N-])cc2)n1
inactive: dose: 100.0 mg/kg/injection, schedule: Q01DX009 (ip), vehicle: carboxymethylcellulose (CMC) 92 % of control and 91 % of control | dose: 100.0 mg/kg/injection, schedule: Q04DX002 (ip), vehicle: carboxymethylcellulose (CMC) 98 % of control | dose: 200.0 mg/kg/injection, schedule: Q01DX009 (ip), vehicle: carboxymethylcellulose (CMC) 95 % of control | dose: 200.0 mg/kg/injection, schedule: Q04DX002 (ip), vehicle: carboxymethylcellulose (CMC) 93 % of control and 98 % of control | dose: 400.0 mg/kg/injection, schedule: Q01DX009 (ip), vehicle: carboxymethylcellulose (CMC) 97 % of control and 102 % of control | dose: 400.0 mg/kg/injection, schedule: Q04DX002 (ip), vehicle: carboxymethylcellulose (CMC) 101 % of control and 105 % of control

CC1(O)OC(n2c(Br)nc3c(N)ncnc32)C(O)C1O (centres undefined)
inactive: dose: 100.0 mg/kg/injection, schedule: Q01DX001 (ip), vehicle: carboxymethylcellulose (CMC) 103 % of control | dose: 200.0 mg/kg/injection, schedule: Q01DX001 (ip), vehicle: carboxymethylcellulose (CMC) 101 % of control | dose: 400.0 mg/kg/injection, schedule: Q01DX001 (ip), vehicle: carboxymethylcellulose (CMC) 95 % of control

CCCCC(=O)C1CN(C(C)(C)C)C1
inactive: dose: 5.0 mg/kg/injection, schedule: Q01DX001 (ip), vehicle: saline 102 % of control | dose: 5.0 mg/kg/injection, schedule: Q01DX009 (ip), vehicle: saline 104 % of control | dose: 10.0 mg/kg/injection, schedule: Q01DX001 (ip), vehicle: saline 97 % of control | dose: 10.0 mg/kg/injection, schedule: Q01DX009 (ip), vehicle: saline 111 % of control | [1] 102 % of control | dose: 20.0 mg/kg/injection, schedule: Q01DX009 (ip), vehicle: saline 97 % of control

Clc1ccc2c[n+]3ccccc3cc2c1
inactive: dose: 2.0 mg/kg/injection, schedule: Q01DX Z (ip), vehicle: carboxymethylcellulose (CMC) 102 % of control | dose: 4.0 mg/kg/injection, schedule: Q01DX Z (ip), vehicle: carboxymethylcellulose (CMC) 92 % of control | dose: 8.0 mg/kg/injection, schedule: Q01DX Z (ip), vehicle: carboxymethylcellulose (CMC) 103 % of control | dose: 16.0 mg/kg/injection, schedule: Q01DX Z (ip), vehicle: carboxymethylcellulose (CMC) 105 % of control

CN1CCC=Cc2ccccc21
inactive: [2] 97 % of control | [3] 92 % of control | [4] 95 % of control | [5] 90 % of control

Cc1ccc(S(=O)(=O)N2CN3CN(C2)CN(S(=O)(=O)c2ccc(C)cc2)C3)cc1
inactive: [3] 95 % of control | [4] 86 % of control | [5] 95 % of control

O=C(OC(COC(c1ccccc1)(c1ccccc1)c1ccccc1)C(OC(=O)c1ccccc1)C(COC(c1ccccc1)(c1ccccc1)c1ccccc1)OC(=O)c1ccccc1)c1ccccc1 (centres undefined)
inactive: [6] 93 % of control | [7] 93 % of control | [8] 93 % of control

COC(=O)C(N)C(C)C (centres undefined)
inactive: dose: 25.0 mg/kg/injection, schedule: Q01DX009 (ip), vehicle: water 100 % of control | dose: 25.0 mg/kg/injection, schedule: Q04DX003 (ip), vehicle: water 106 % of control | dose: 50.0 mg/kg/injection, schedule: Q01DX009 (ip), vehicle: water 102 % of control | dose: 50.0 mg/kg/injection, schedule: Q04DX003 (ip), vehicle: water 104 % of control | dose: 100.0 mg/kg/injection, schedule: Q01DX009 (ip), vehicle: water 102 % of control | dose: 100.0 mg/kg/injection, schedule: Q04DX003 (ip), vehicle: water 114 % of control | dose: 200.0 mg/kg/injection, schedule: Q01DX009 (ip), vehicle: water 103 % of control | dose: 200.0 mg/kg/injection, schedule: Q04DX003 (ip), vehicle: water 101 % of control | dose: 400.0 mg/kg/injection, schedule: Q01DX009 (ip), vehicle: water 100 % of control | dose: 400.0 mg/kg/injection, schedule: Q04DX003 (ip), vehicle: water 104 % of control

CCN(CC)CCn1ccnc1C
inactive: dose: 50.0 mg/kg/injection, schedule: Q01DX005 (ip), vehicle: saline 109 % of control | dose: 100.0 mg/kg/injection, schedule: Q01DX005 (ip), vehicle: saline 104 % of control | dose: 200.0 mg/kg/injection, schedule: Q01DX005 (ip), vehicle: saline 104 % of control

CN1CCC(OC(=O)C2CC(=O)NC(=O)C2)CC1
inactive: [6] 107 % of control | [7] 102 % of control | [8] 94 % of control

Cc1ccc(C(C)C)c(OCC(O)Cn2ccnc2)c1 (centres undefined)
inactive: [1] 103 % of control | dose: 40.0 mg/kg/injection, schedule: Q01DX001 (ip), vehicle: saline 101 % of control | dose: 80.0 mg/kg/injection, schedule: Q01DX001 (ip), vehicle: saline 88 % of control | [9] 94 % of control

O=C(O)c1ccccc1SCCO
inactive: [2] 109 % of control | dose: 200.0 mg/kg/injection, schedule: Q01DX009 (ip), vehicle: saline 94 % of control | dose: 400.0 mg/kg/injection, schedule: Q01DX009 (ip), vehicle: saline 95 % of control

O=C(CC(NC(=O)OCc1ccccc1)C(=O)O)OCc1ccccc1 (centres undefined)
inactive: dose: 100.0 mg/kg/injection, schedule: Q01DX009 (ip), vehicle: saline sonified 95 % of control | dose: 100.0 mg/kg/injection, schedule: Q01DX009 (ip), vehicle: saline with Tween-80 103 % of control | dose: 100.0 mg/kg/injection, schedule: Q04DX003 (ip), vehicle: saline sonified 97 % of control | dose: 200.0 mg/kg/injection, schedule: Q01DX009 (ip), vehicle: saline sonified 94 % of control | dose: 200.0 mg/kg/injection, schedule: Q01DX009 (ip), vehicle: saline with Tween-80 94 % of control | dose: 200.0 mg/kg/injection, schedule: Q04DX003 (ip), vehicle: saline sonified 89 % of control | dose: 400.0 mg/kg/injection, schedule: Q01DX009 (ip), vehicle: saline sonified 90 % of control | dose: 400.0 mg/kg/injection, schedule: Q01DX009 (ip), vehicle: saline with Tween-80 94 % of control | dose: 400.0 mg/kg/injection, schedule: Q04DX003 (ip), vehicle: saline sonified 103 % of control

Cc1cc(C)c(NC(=O)NC(C)C)c(C)c1
inactive: [10] 104 % of control | [6] 98 % of control | dose: 200.0 mg/kg/injection, schedule: Q01DX009 (ip), vehicle: Klucel (hydroxypropylcellulose) (HPC) 101 % of control | [7] 105 % of control | dose: 400.0 mg/kg/injection, schedule: Q01DX009 (ip), vehicle: Klucel (hydroxypropylcellulose) (HPC) 91 % of control | [8] 91 % of control

CCN(CC)CC(Cl)COc1ccccc1C (centres undefined)
inactive: [9] 91 % of control | [11] 94 % of control

O=C(COC(=O)c1c(Cl)c(Cl)c(Cl)c(Cl)c1C(=O)O)c1ccc(-c2ccccc2)cc1
inactive: [9] 94 % of control | [11] 102 % of control | dose: 400.0 mg/kg/injection, schedule: Q01DX001 (ip), vehicle: saline 91 % of control

CC1C2CCC(C2)C1C(=O)O (centres undefined)
inactive: dose: 100.0 mg/kg/injection, schedule: Q01DX009 (ip), vehicle: other 97 % of control | dose: 100.0 mg/kg/injection, schedule: Q04DX003 (ip), vehicle: saline with Tween-80 96 % of control | dose: 200.0 mg/kg/injection, schedule: Q01DX009 (ip), vehicle: other 109 % of control | dose: 400.0 mg/kg/injection, schedule: Q01DX009 (ip), vehicle: other 95 % of control | dose: 400.0 mg/kg/injection, schedule: Q04DX003 (ip), vehicle: saline with Tween-80 87 % of control

CSc1nc(N)cc(NC(=O)CCl)n1
inactive: dose: 50.0 mg/kg/injection, schedule: Q01DX009 (ip), vehicle: Klucel (hydroxypropylcellulose) (HPC) 101 % of control | [10] 102 % of control | [6] 92 % of control | [7] 92 % of control

Oc1ccccc1C=NCCCN1CCOCC1.Oc1ccccc1C=NCCCN1CCOCC1.[Co]
inactive: dose: 12.5 mg/kg/injection, schedule: Q01DX001 (ip), vehicle: saline 98 % of control | dose: 25.0 mg/kg/injection, schedule: Q01DX001 (ip), vehicle: saline 100 % of control | dose: 50.0 mg/kg/injection, schedule: Q01DX001 (ip), vehicle: saline 98 % of control

— PubChem BioAssay AID248 (DTP/NCI, 2004)
